These results are taken from PubChem BioAssay AID2060342 (Molecular Pharmacology Branch, DTP, NCI, 2025).

Each structure is given as a SMILES string. pIC50: −log10 of the molar value. Where “and” joins values, the source holds several entries; their conditions need not be identical. Equal entries are not always repeated.

The experiment relates to 171881-019-R-J1-PDC multicell spheroid viability. Description: Anticancer human tumor 171881-019-R-J1-PDC patient-derived invasive breast carcinoma cell line growth inhibition [IpAb]. As to conditions: for viability, T/C: stronger effect = lower value. From the text: Combinatorial screen of targeted agents with ipatasertib and abemaciclib in multi-cell type tumor spheroids
A high-throughput screen of multi-cell type tumor spheroids was designed to identify active combinations of targeted small molecules and ipatasertib or abemaciclib. Complex spheroids include a stromal component modeled by human endothelial cells (HUVEC) and fibroblasts modeled by human mesenchymal stem cells (MSCs). The concentration ranges selected for each drug and investigational agent were based upon clinically achievable concentrations if the clinical Cmax of the agent was known.
Compounds. The drugs and investigational agents: ipatasertib (NSC767898), abemaciclib(NSC768073), selumetinib (NSC741078), trametinib (758246), adavosertib (NSC754352), everolimus (NSC733504), sapanisertib (NSC764658), vemurafenib (NSC761431), venetoclax (NSC766270), copanlisib (NSC809693), apelisib (NSC765974), palbociblib (NSC758247), vemurafenib (NSC761431), dabrafenib (NSC764134), ravoxertinib (NSC781343), BMS-387032 (NSC767048), sotorasib (NSC818433), talazoparib (NSC767125) and afursertib (NSC778305), were obtained from the National Cancer Institute (NCI) Developmental Therapeutics Program Chemical Repository. The FDA-approved anticancer drug set is available from the NCI Developmental Therapeutics Program. […] The stock solutions were prepared in dimethyl sulfoxide (DMSO, Sigma-Aldrich, St. Louis, MO, cat. D2650) at 800-fold the tested concentration and stored at -70 degrees C prior to their use. All drugs and investigational agents were tested over a range starting from a high concentration at or near the clinical Cmax and decreasing in half-log increments. If the clinical Cmax for an agent had not been determined, the highest concentration tested was 10 microM.
NCI60 Cell Culture. NCI60 cell lines were obtained from the NCI Developmental Therapeutics Program Tumor Repository. For each lot of cells, the Repository performed Applied Biosystems AmpFLSTR Identifiler testing with PCR amplification to confirm consistency with the published Identifier STR profile for each cell line. Cells were kept in continuous culture for no more than 20 passages. The optimal seeding densities for each of the cell lines at each time point assessed were determined prior to performing the concentration response studies. Briefly, the NCI60 human tumor lines were grown as monolayers in RPMI 1640 medium supplemented with 10% FBS and 2 mmol/L L-glutamine.
An additional 9 lines were from the NCI60 cell line panel including MDA-MB-231 breast carcinoma, MDA-MB-468 breast carcinoma, MCF7 breast carcinoma, Hs578T breast carcinoma, MALME-3M melanoma, SK-MEL-2 melanoma, SK-OV-3 ovarian carcinoma, DU-145 prostate carcinoma, PC-3 prostate carcinoma, all cell lines along with major genetic alterations are listed on Table 2. Pooled donor human umbilical vein endothelial cells (HUVEC, Lonza, cat. CC-2519) and human mesenchymal stem cells (hMSC, Lonza, cat. PT-2501) were purchased from Lonza (Walkersville, MD).
PDMR cell lines were grown in complete medium (DC medium): Dulbecco's modified Eagle's medium (DMEM)/F12 supplemented with 5% fetal bovine serum (FBS), 2 mM L-glutamine, 100 U/mL penicillin and 100 µg/ml streptomycin, 0.4 µg/ml hydrocortisone, 10 ng/ml epidermal growth factor (EGF) recombinant human protein, 24 µg/mL adenine, and 0.1 mg/mL primocin. During culture from frozen stock vials, PDMR cells were cultured in the same medium containing 10 µM Y-27632 (see Table 3). The PDCs were cultured in complete DMEM/F12 media without 10 microM Y-27632 dihydrochloride for at least two passages prior to the screen. The pooled donor HUVEC and hMSC were cultured in endothelial cell growth medium 2 (PromoCell, Heidelberg, Germany, cat. C-22011) and mesenchymal stem cell growth medium 2 (PromoCell, cat. C-28009), respectively. For all experiments, HUVEC and hMSC were used at passages </=5.
[…]

Where [1] appears, read: curve of first compound, second compound 0.1 µM.
The mark [2] stands for this setting: curve of first compound, second compound 0.316 µM.
Setting [3] is: curve of first compound, second compound 1 µM.
[4] abbreviates: second compound 0.1 µM, first compound 0.0316 µM.
Where [5] appears, read: second compound 0.1 µM, first compound 0.1 µM.
Setting [6] is: second compound 0.1 µM, first compound 0.316 µM.
Setting [7] is: second compound 0.1 µM, first compound 1 µM.
The mark [8] stands for this setting: second compound 0.316 µM, first compound 0.0316 µM.
Where [9] appears, read: second compound 0.316 µM, first compound 0.1 µM.
The mark [10] stands for this setting: second compound 0.316 µM, first compound 0.316 µM.
The mark [11] stands for this setting: second compound 0.316 µM, first compound 1 µM.
Setting [12] is: second compound 1 µM, first compound 0.0316 µM.
Where [13] appears, read: second compound 1 µM, first compound 0.1 µM.
[14] abbreviates: second compound 1 µM, first compound 0.316 µM.
The mark [15] stands for this setting: second compound 1 µM, first compound 1 µM.
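Further: spheroids exposed to the agents for seven days before readout.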

For orientation: viability, T/C means the ratio of treated to control. The IC50 is the midpoint of a concentration-inhibition curve. Consider `CC(C)NCC(C(=O)N1CCN(c2ncnc3c2C(C)CC3O)CC1)c1ccc(Cl)cc1` (stereo unspecified), for which the viability, T/C runs as follows: (compound 1 µM) 27.9% [middle of 13 runs]; (compound 3.16 µM) 11.2% [middle of 13 runs]; (compound 10 µM) 6.7% [middle of 12 runs]. Besides, under “compound alone, run of 05/18/2021”, the 50% inhibitory concentration (IC50) is 618 nM [middle of 13 runs].
As a reminder, the pIC50 is the IC50 on a negative log10 scale, so that one unit is a factor of ten. As for `COc1c(OCCCN2CCOCC2)ccc2c3n(c(=NC(=O)c4cnc(N)nc4)nc12)CCN3` + CCN1CCN(Cc2ccc(Nc3ncc(F)c(-c4cc(F)c5nc(C)n(C(C)C)c5c4)n3)nc2)CC1, the pIC50 is, setting by setting: (curve of first compound, second compound 0.01 µM) 7.71; (curve of first compound, second compound 0.0316 µM) 7.68; under setting [1], 7.69; under setting [2], 7.63; under setting [3], 7.50. Besides, the viability, T/C by setting is: (second compound 0.01 µM, first compound 0.00316 µM) 115%; (second compound 0.01 µM, first compound 0.01 µM) 76.6%; (second compound 0.01 µM, first compound 0.0316 µM) 31.9%; (second compound 0.01 µM, first compound 0.1 µM) 5.33%; (second compound 0.01 µM, first compound 0.316 µM) 1%; (second compound 0.01 µM, first compound 1 µM) 1.29%. The viability, T/C was 113% (second compound 0.0316 µM, first compound 0.00316 µM); 76.2% (second compound 0.0316 µM, first compound 0.01 µM); 38.7% (second compound 0.0316 µM, first compound 0.0316 µM); 4.99% (second compound 0.0316 µM, first compound 0.1 µM); 1% (second compound 0.0316 µM, first compound 0.316 µM); 1.5% (second compound 0.0316 µM, first compound 1 µM). The viability, T/C was 115% (second compound 0.1 µM, first compound 0.00316 µM); 80.2% (second compound 0.1 µM, first compound 0.01 µM); 31.9% under setting [4]; 5.31% under setting [5]; 0.99% under setting [6]; 1.13% under setting [7]. For the same molecule, the viability, T/C (second compound 0.316 µM, first compound 0.00316 µM) was 110%; the viability, T/C (second compound 0.316 µM, first compound 0.01 µM) is 76.1%; the viability, T/C under setting [8] is 45.3%; the viability, T/C under setting [9] is 7.2%; the viability, T/C under setting [10] was 1.95%; the viability, T/C under setting [11] was 1.08%. Also, the viability, T/C is, setting by setting: (second compound 1 µM, first compound 0.00316 µM) 121%; (second compound 1 µM, first compound 0.01 µM) 82.6%; under setting [12], 56.6%; under setting [13], 17.2%; under setting [14], 4.08%; under setting [15], 2%.
For the molecule `CC(C)(C)c1cnc(CSc2cnc(NC(=O)C3CCNCC3)s2)o1`, the viability, T/C was 96% and 96.9% (compound 0.00949 µM); 109% and 96.1% (compound 0.03 µM); 116% and 119% (compound 0.0949 µM); 20.1% and 3.63% (compound 0.3 µM); 0.52% and 0.41% (compound 0.949 µM); 0.65% and 0.81% (compound 3 µM). In addition, where the note is “curve of compound”, the pIC50 was 6.69 and 6.75.
For `CCCS(=O)(=O)Nc1ccc(F)c(C(=O)c2c[nH]c3ncc(-c4ccc(Cl)cc4)cc23)c1F` + CC(C)NCC(C(=O)N1CCN(c2ncnc3c2C(C)CC3O)CC1)c1ccc(Cl)cc1, the pIC50 runs as follows: under setting [1], less than 5.00; under setting [2], less than 5.00; under setting [3], greater than 7.50; (curve of first compound, second compound 3.16 µM) greater than 7.50; (curve of first compound, second compound 10 µM) greater than 7.50. The viability, T/C is 112% under setting [4]; 128% under setting [5]; 110% under setting [6]; 111% under setting [7]; 112% (second compound 0.1 µM, first compound 3.16 µM); 90.8% (second compound 0.1 µM, first compound 10 µM). The viability, T/C under setting [8] is 90.3%; the viability, T/C under setting [9] is 91.5%; the viability, T/C under setting [10] is 92.5%; the viability, T/C under setting [11] is 97.8%; the viability, T/C (second compound 0.316 µM, first compound 3.16 µM) was 110%; the viability, T/C (second compound 0.316 µM, first compound 10 µM) is 100%. The viability, T/C reads like this: under setting [12], 36.9%; under setting [13], 39.9%; under setting [14], 38.9%; under setting [15], 41.4%; (second compound 1 µM, first compound 3.16 µM) 47.2%; (second compound 1 µM, first compound 10 µM) 53.7%. For the same molecule, the viability, T/C by setting is: (second compound 3.16 µM, first compound 0.0316 µM) 12.8%; (second compound 3.16 µM, first compound 0.1 µM) 13.4%; (second compound 3.16 µM, first compound 0.316 µM) 14.2%; (second compound 3.16 µM, first compound 1 µM) 14.5%; (second compound 3.16 µM, first compound 3.16 µM) 21%; (second compound 3.16 µM, first compound 10 µM) 24.1%. For the same molecule, the viability, T/C runs as follows: (second compound 10 µM, first compound 0.0316 µM) 7.7%; (second compound 10 µM, first compound 0.1 µM) 7.32%; (second compound 10 µM, first compound 0.316 µM) 8.04%; (second compound 10 µM, first compound 1 µM) 8.61%; (second compound 10 µM, first compound 3.16 µM) 10.4%; (second compound 10 µM, first compound 10 µM) 11%.
